Test results published in PubChem BioAssay (NCI).
Several values for one entry are separate records, joined by “and”; a condition that tells them apart may be missing. Equal values may be shown once.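 Method: 48-hour compound exposure of cells in 96-well plates, five concentrations, linear interpolation of endpoints. GI50 = concentration required for 50% inhibition of growth. The concentration for full growth arrest is given as TGI.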

What was measured:
Experiment in all cases: inhibition of tumour cell growth, NCI panel, 48 h
DLD-1 colon = system: DLD-1 colon
DMS 273 small cell lung = system: DMS 273 small cell lung
HOP-18 NSCLC = system: HOP-18 NSCLC
M19-MEL melanoma = system: M19-MEL melanoma
SNB-78 CNS = system: SNB-78 CNS
XF 498 CNS = system: XF 498 CNS
MDA-MB-435 = system: MDA-MB-435
MDA-N = system: MDA-N

SMILES	TGI (DLD-1 colon)	TGI (DMS 273 small cell lung)	TGI (M19-MEL melanoma)	TGI (MDA-MB-435)	GI50 (MDA-MB-435)	also measured
C[C@@]12CCCc3coc(c31)C(=O)c1cc3c(cc12)C(=O)C=CC3=O	> 1 µM and 6.07 µM	> 1 µM	> 1 µM and 28 µM			GI50 (DLD-1 colon): > 1 µM; GI50 (HOP-18 NSCLC): > 1 µM; TGI (HOP-18 NSCLC): > 1 µM and 28.2 µM; GI50 (M19-MEL melanoma): > 1 µM; TGI (SNB-78 CNS): > 1 µM; GI50 (XF 498 CNS): > 1 µM; TGI (XF 498 CNS): > 1 µM and 29.6 µM
CC(C)OC(=O)NNc1cc(Cl)ccc1Cl				> 100 µM		TGI (MDA-N): > 100 µM
COc1ccc2[nH]c3c4c(ccc3c2c1)C(=O)C=CC4=O	8.78 µM	32 µM	32.7 µM	66.5 µM		TGI (HOP-18 NSCLC): 22.7 µM; TGI (MDA-N): 29.7 µM; TGI (SNB-78 CNS): 37.1 µM
CN1NC(=Nc2ccccc2)Sc2c1cnn(-c1ccccc1)c2=O	> 100 µM	> 100 µM	> 100 µM			TGI (HOP-18 NSCLC): > 100 µM
COc1ccc(Nc2c3ccccc3nc3occ(Cl)c23)cc1				< 0.0317 µM	< 0.01 µM	
Cc1cn2c(/C=C3\C(=O)N(C)c4ccc(O)cc43)c(C)nc2s1				3.92 µM	1.19 µM	
C=CCNC(=O)N(CCC)CCCCC(NC(C)=O)C(=O)NCc1ccccc1 (centres undefined)		> 100 µM	> 100 µM			TGI (HOP-18 NSCLC): > 100 µM; TGI (XF 498 CNS): > 100 µM
O=C(Nc1ccc(CO)cc1)c1coc2ccccc2c1=O				> 100 µM	> 100 µM	
NC(N)=NCCCCCNc1noc(Cc2c[nH]c3cc(Br)ccc23)n1				62.7 µM	19.3 µM	
COC(=O)CCC(=O)CC1CC(=O)C2CCCN12 (centres undefined)	> 100 µM	> 100 µM	> 100 µM			TGI (HOP-18 NSCLC): > 100 µM; TGI (SNB-78 CNS): > 100 µM; TGI (XF 498 CNS): > 100 µM
Cc1cc2c(cc1Cl)SC(=Nc1ccc(Cl)cc1)N(S(=O)(=O)c1ccccc1)S2(=O)=O				19.6 µM	5.18 µM	
COc1cc2cccc(N=Cc3cccc(OC)c3OC(C)C)c2cc1OC	70 µM		48.2 µM			TGI (SNB-78 CNS): > 100 µM; TGI (XF 498 CNS): 55.4 µM
Cc1c(C2=C(Br)C(=O)N(C)C2=O)c(=O)n(C)c(=O)n1C				58.6 µM		TGI (MDA-N): 77.8 µM
C[C@]12CC[C@@H]3c4ccc(O)cc4CC[C@H]3[C@@H]1CC[C@@H]2NS(=O)(=O)c1cccc(F)c1				8.77 µM	2.58 µM	
N=C(N)SCc1cccc(-c2nc3ccccc3c(=O)o2)c1				> 100 µM		TGI (MDA-N): > 100 µM
O=C(Nc1ccc(-c2ccccc2)cc1)C1CCN(S(=O)(=O)c2ccccc2Cl)CC1				> 100 µM	> 100 µM	
CC1CCC(=O)C(C(=O)CC2CC(=O)NC(=O)C2)C1 (centres undefined)				> 100 µM		TGI (MDA-N): > 100 µM
C=C1C(=O)O[C@H]2/C=C(/C)C3=CC(=O)[C@@](C)(C[C@@H](OC(=O)/C(C)=C\C)C12)O3 (some centres undefined)				6.02 µM		TGI (MDA-N): 6.24 µM
C=C1C(=O)O[C@H]2[C@H]1CC/C(COC(=O)c1ccc(Cl)nc1)=C\CC[C@@]1(C)O[C@@H]21				6.81 µM	2.14 µM	
Cn1cc(C2=C(c3cn(CCCCCN)c4ccccc34)C(=O)NC2=O)c2ccccc21				> 25 µM	2.4 µM	
C1C[OH+]CCNCC[OH+]CC[OH+]CCN1.[Cl-].[Pt+4]	> 100 µM	> 100 µM				GI50 (DLD-1 colon): > 100 µM; GI50 (DMS 273 small cell lung): > 100 µM; GI50 (HOP-18 NSCLC): > 100 µM; TGI (HOP-18 NSCLC): > 100 µM
Nc1nc(CCl)nc(Nc2ccccc2)n1	> 100 µM	14 µM	98.8 µM			
CCOC(=O)CNC(=O)c1ccccc1Nc1ccnc(C(F)(F)F)c1				> 100 µM	36.9 µM	
COc1cc2ncn(-c3cc(OCCc4ccccc4)c(C(N)=O)s3)c2cc1OC				> 25 µM	9.55 µM	
C=CCSS/C=C/CS(=O)CC=C (centres undefined)				37.3 µM		TGI (MDA-N): 35.9 µM
COC(=O)/C(C#N)=C1\CCC(O)N1 (centres undefined)	> 100 µM	> 100 µM	> 100 µM			TGI (HOP-18 NSCLC): > 100 µM; TGI (SNB-78 CNS): > 100 µM; TGI (XF 498 CNS): > 100 µM
